# Measurements reported in patent US20220227729A1, “IDENTIFICATION AND USE OF KRAS INHIBITORS” (Bayer Aktiengesellschaft, priority 2019, published 2022).
# Columns and labels:
# KRAS^G12C = KRAS^G12C (Homo sapiens, UniProt P01116, G12C); experiment: KRAS G12C activation by SOS1cat assay (On-assay), HTRF; details: SOS1cat mediated loading of GST-KRAS G12C-GDP with fluorescent GTP analogue; 180 min preincubation; 20° C.; read-out: IC50 value biochemical KRAS^G12C activation assay
# Description: (§1) Preparation of test compound dilutions. A 100-fold concentrated solution of the test compound (50 nL) in DMSO was transferred to microtiter test plates (384 or 1,536 wells, Greiner Bio-One, Germany) using either a Hummingbird liquid handler (Digilab, MA, USA) or an Echo acoustic system (Labcyte, CA, USA). Plates were sealed with adhesive foil or heat-sealed and stored at −20° C. until use. Serial dilutions of test compounds were prepared in 100% DMSO using a Precision Pipetting System (BioTek, USA).
# (§2) Measurement and evaluation of inhibition data, calculation of IC50 values. Homogeneous time-resolved fluorescence (HTRF) was measured with a PHERAstar reader (BMG, Germany) using the HTRF module (excitation: 337 nm; emission 1: 620 nm, emission 2: 665 nm). The ratio of the emissions at 665 and 620 nm was used as the specific signal for further evaluation. The data were normalized using the controls: DMSO=0% inhibition, inhibition control wells with inhibitor control solution=100% inhibition. Compounds were tested in duplicates at up to 11 concentrations (e.g. 20 μM, 5.7 μM, 1.6 μM, 0.47 μM, 0.13 μM, 38 nM, 11 nM, 3.1 nM, 0.89 nM, 0.25 nM and 0.073 nM). IC50 values were calculated using a four-parameter fit, with a commercial software package (Genedata Screener, Switzerland).
# (§3) KRAS^G12C activation by SOS1^cat assay (“On-assay”). This assay quantifies SOS1^cat mediated loading of KRAS^G12C-GDP with a fluorescent GTP analogue. Detection of successful loading was achieved by measuring resonance energy transfer from anti-GST-terbium (FRET donor) bound to GST-KRAS^G12c to the loaded fluorescent GTP analogue (FRET acceptor). The fluorescent GTP analogue EDA-GTP-DY-647P1 [2′/3′-O-(2-aminoethyl-carbamoyl)guanosine-5′-triphosphate labelled with DY-647P1 (Dyomics GmbH, Germany)] was synthesized by Jena Bioscience (Germany) and supplied as a 1 mM aqueous solution. A KRAS^G12C working solution was prepared in assay buffer [10 mM HEPES pH 7.4 (AppliChem), 150 mM NaCl (Sigma), 5 mM MgCl2 (Sigma), 1 mM DTT (Thermo Fisher), 0.05% BSA Fraction V pH 7.0 (ICN Biomedicals), 0.0025% (v/v) Igepal (Sigma)] containing 100 nM GST-KRAS^G12C and 2 nM anti-GST-terbium (Cisbio, France). A SOS1^cat working solution was prepared in assay buffer containing 20 nM SOS1^cat and 200 nM EDA-GTP-DY-647P1. An inhibitor control solution was prepared in assay buffer containing 200 nM EDA-GTP-DY-647P1 without SOS1^cat. All steps of the assay were performed at 20° C. A volume of 2.5 μL of the KRAS^G12C working solution was added to all wells of the test plate using a Multidrop dispenser (Thermo LabSystems). After 180 min, 2.5 μL of the SOS1^cat working solution was added to all wells, except for the inhibitor control solution wells. After 30 min incubation, HTRF was measured.
# KRAS^WT = KRAS^WT (Homo sapiens, UniProt P01116); experiment: Wild-type KRAS activation by SOS1cat assay, HTRF; details: SOS1cat mediated loading of GST-KRAS WT-GDP with fluorescent GTP analogue; 50 nM GST-KRAS WT; read-out: IC50 value biochemical KRAS^wt activation assay
# Description: as §1, §2, §3
# Wild-type KRAS activation by SOS1^cat assay. This assay quantifies human SOS1^cat mediated loading of wild-type GST-KRAS^WT-GDP with a fluorescent GTP analogue. The assay was performed similar to the KRAS^G12C activation by SOS1^cat assay. GST-KRAS^G12C was replaced by GST-KRAS^WT, which was used at 50 nM final concentration.
# [1] = target: recombinant kRas mutant (G12C; C51S; C80L; C118S) (Homo sapiens, UniProt P01116, C118S/C51S/C80L/G12C); experiment: Covalent binding assay, intact mass LC-MS; details: 25 μM protein, 25 μM compound, room temperature, 2 h
# Description: The percentage of covalent adduct formation at KRas G12C was determined by intact mass determination. To this end 25 μM recombinant kRas mutant (G12C; C51S; C80L; C118S) (storage buffer: 50 mM Tris, pH=8; 50 mM NaCl) were incubated with 25 μM of compound (1% v/v final DMSO concentration) at room temperature for 2 h. For LC-MS analysis the reaction was acidified by adding 4 μL of 4% v/v TFA to 20 μL reaction volume.
# Liquid chromatography-mass spectrometry (LC-MS) analysis was performed using a Waters SYNAPT G2-S quadrupole time-of-flight mass spectrometer connected to a Waters nanoAcquity UPLC system. Samples were loaded on a 2.1×5 mm mass prep C4 guard column (Waters) and desalted with a short gradient (3 min.) of increasing concentrations of acetonitrile at a flow rate of 100 μL/min. Spectra were analyzed by using MassLynx v4.1 software and deconvoluted with the MaxEnt1 algorithm.
# Percent conversion was determined by the ratio of signal intensities of apo-kRas and kRas+inhibitor.
Structure (SMILES),IC50 (KRAS^G12C) [µM],IC50 (KRAS^WT) [µM],Covalent Binding Assay (% binding) [1] [%]
"C=CC(=O)N1CCC(c2cc3ncc(-c4ccc(F)c(O)c4)cc3c(=O)[nH]2)C1 (stereo not shown) [Example 37, 3-(4-Fluoro-3-hydroxyphenyl)-7-[1-(prop-2-enoyl)pyrrolidin-3-yl]-1,6-naphthyridin-5(6H)-one]",> 20,> 20,21
"C=CC(=O)N1CCC(c2cc3ncc(-c4sc(C)nc4C)cc3c(=O)[nH]2)C1 (stereo not shown) [Example 34, 3-(2,4-Dimethyl-1,3-thiazol-5-yl)-7-[1-(prop-2-enoyl)pyrrolidin-3-yl]-1,6-naphthyridin-5(6H)-one]",> 20,> 20,0
"C=CC(=O)N1CCC(c2nc3cc(Cl)c(-c4c(O)cccc4F)cc3c(=O)[nH]2)C1 (stereo not shown) [Example 24, 7-Chloro-6-(2-fluoro-6-hydroxyphenyl)-2-[1-(prop-2-enoyl)pyrrolidin-3-yl]quinazolin-4(3H)-one]",9.1,> 20,53
"C=CC(=O)N1CCC(c2cc3ccc(-c4cccc5ncccc45)cc3c(=O)[nH]2)C1 (stereo not shown) [Example 2, 3-[1-(Prop-2-enoyl)pyrrolidin-3-yl]-7-(quinolin-5-yl)isoquinolin-1(2H)-one]",> 9,,20
"C=CC(=O)N1CCC(c2cc3cc(O)c(-c4ncccc4F)cc3c(=O)[nH]2)C1 (stereo not shown) [Example 10, 3-(1-Acryloylpyrrolidin-3-yl)-7-(3-fluoropyridin-2-yl)-6-hydroxy-isoquinolin-1(2H)-one]",> 20,> 20,0
"C=CC(=O)N1CCC(c2cc3ncc(-c4cccc5ncccc45)cc3c(=O)[nH]2)C1 (stereo not shown) [Example 32, 7-[1-(Prop-2-enoyl)pyrrolidin-3-yl]-3-(quinolin-5-yl)-1,6-naphthyridin-5(6H)-one]",> 20,> 20,13
"C=CC(=O)N1CCC(c2cc3ccc(-c4cc(F)cc(F)c4)cc3c(=O)[nH]2)C1 (stereo not shown) [Example 8, 7-(3,5-Difluorophenyl)-3-[1-(prop-2-enoyl)pyrrolidin-3-yl]isoquinolin-1(2H)-one]",,,0
"C=CC(=O)N1CCC(c2cc3ccc(-c4ccccc4CC)cc3c(=O)[nH]2)C1 (stereo not shown) [Example 5, 7-(2-Ethylphenyl)-3-[1-(prop-2-enoyl)pyrrolidin-3-yl]isoquinolin-1(2H)-one]",8,,60
"C=CC(=O)N1CCC(c2cc3cc(Cl)c(-c4c(O)cccc4F)cc3c(=O)[nH]2)C1 (stereo not shown) [Example 27, 6-Chloro-7-(2-fluoro-6-hydroxyphenyl)-3-[1-(prop-2-enoyl)pyrrolidin-3-yl]isoquinolin-1(2H)-one]",16,,
"C=CC(=O)N1CCC(c2cc3ccc(-c4ccc(F)cc4F)cc3c(=O)[nH]2)C1 (stereo not shown) [Example 4, 7-(2,4-Difluorophenyl)-3-[1-(prop-2-enoyl)pyrrolidin-3-yl]isoquinolin-1(2H)-one]",5,,

# Other lines, results leading:
IC50 (KRAS^G12C) [µM],IC50 (KRAS^WT) [µM],Covalent Binding Assay (% binding) [1] [%],Structure (SMILES)
2.8,,80,"C=CC(=O)N1CCC(c2cc3ncc(-c4c(O)cccc4F)cc3c(=O)[nH]2)C1 (stereo not shown) [Example 29, 3-(2-Fluoro-6-hydroxyphenyl)-7-[1-(prop-2-enoyl)pyrrolidin-3-yl]-1,6-naphthyridin-5(6H)-one]"
1.3,,61,"C=CC(=O)N1CCC(c2cc3cnc(-c4c(O)cccc4F)cc3c(=O)[nH]2)C1 (stereo not shown) [Example 42, 7-(2-Fluoro-6-hydroxyphenyl)-3-[1-(prop-2-enoyl)pyrrolidin-3-yl]-2,6-naphthyridin-1(2H)-one]"
4.7,,,"C=CC(=O)N1CCC(c2cc3ccc(-c4c(O)cccc4F)cc3c(=O)[nH]2)C1 (stereo not shown) [Example 1, 7-(2-Fluoro-6-hydroxyphenyl)-3-[1-(prop-2-enoyl)pyrrolidin-3-yl]isoquinolin-1(2H)-one]"
4.9,,,"C=CC(=O)N1CCC(c2nc3ccc(-c4c(O)cccc4F)cc3c(=O)[nH]2)C1 (stereo not shown) [Example 17, 6-(2-Fluoro-6-hydroxyphenyl)-2-[1-(prop-2-enoyl)pyrrolidin-3-yl]quinazolin-4(3H)-one]"
